Reference: paper PMC5833756, “A novel ruthenium complex with xanthoxylin induces S-phase arrest and causes ERK1/2-mediated apoptosis in HepG2 cells through a p53-independent pathway” (Cell Death & Disease, 2018)
Where “and” joins values, the source holds several entries; their conditions need not be identical. Equal entries are not always repeated.

Assays:
HepG2 cells [1] = assay: Intracellular reactive oxygen species levels (DCF-DA); assay type: cell-based, human; settings: HepG2, 1 or 3 h
Experimental: The production levels of ROS were measured according to a previously described method[39] using DCF-DA (Sigma-Aldrich). […] Then, the cells were collected, washed with saline and resuspended in FACS tubes with saline containing 5 μM DCF-DA for 30 min. […] A protection assay using the antioxidant NAC (Sigma-Aldrich) was also performed. […] The cells were then trypsinized, and the TBE assay was performed.

ACP-03 = assay type: cell-based, human
caspase-3 = assay: Caspase-3 colorimetric activation assay; assay type: cell-based, human; settings: HepG2, 48 h
Experimental: A caspase-3 colorimetric assay kit (Sigma-Aldrich), caspase-8 colorimetric assay kit (BioVision Inc.; Milpitas, CA, USA) and caspase-9 colorimetric assay kit (Invitrogen; Frederick, MD, USA) were used to investigate the activation of caspase-3, -8 and -9 in RCX-treated HepG2, respectively. […] Briefly, cells were lysed by incubation with cell lysis buffer on ice for 10 min and then centrifuged. Enzyme reactions were carried out in a 96-well flat-bottom microplate. To each reaction mixture, 5 μL of cell lysate was added. Absorbance at 405 nm was measured using the SpectraMax 190 Microplate Reader (Molecular Devices). The results are expressed as the specific activity (IU/mg protein) of each caspase.

HSC-3 = assay type: cell-based, human; settings: HSC-3 (human oral squamous cell carcinoma), 72 h
HepG2 cells [2] = assay: Gene expression analysis by qPCR array (TaqMan Array Human Molecular Mechanisms of Cancer); assay type: cell-based; settings: HepG2, 12 h; RCX 12 µM, DOX 2 µM
Experimental: HepG2 cells were plated in bottles for cell culture (7 × 10^4 cells/mL). […] The RNA was evaluated by fluorimetry using QuBit (Life Technologies; Camarillo, CA, USA). RNA reverse transcription was performed using a Superscript VILO™ Kit (Invitrogen Corporation; Waltham, MA, USA). A 96-well plate TaqMan® Array Human Molecular Mechanisms of Cancer (ID 4418806, Applied Biosystems^TM, Foster City, CA, USA) was used for the gene expression study by qPCR. The reactions were conducted in an ABI ViiA7 system (Applied Biosystems^TM; Foster City, CA, USA). The cycle conditions comprised 2 min at 50 °C, 20 s at 95 °C, then 40 cycles of 3 s at 95 °C and 30 s at 60 °C. The relative quantification (RQ) of mRNA expression was calculated by the 2^-ΔΔCT method[40] using Gene Expression Suite™ Software (Applied Biosystems^TM), and the cells treated with the negative control (0.2% DMSO) were used as a calibrator. The reactions were normalized by the geometric mean of the RQ of the reference genes GAPDH, 18S and HPRT1. All experiments were performed in DNase/RNase-free conditions.

K-562 = assay type: cell-based, human; settings: K-562 (human chronic myelogenous leukemia), 72 h
MCF-7 = assay type: cell-based, human; settings: MCF-7 (human breast adenocarcinoma), 72 h

`COc1cc([O-])c(C(C)=O)c(OC)c1.F[P-](F)(F)(F)(F)F.[Ru+2].c1cnc2c(c1)ccc1cccnc12.c1cnc2c(c1)ccc1cccnc12` [RCX, cis-[Ru(phen)2(xant)](PF6)] was tested, and the ROS levels (HepG2 cells [1]) was “did not induce a significant increase in ROS levels”, the “selectivity index (SI)” value (ACP-03) was 0.2 and the IC50 (ACP-03; ACP-03 (human gastric adenocarcinoma), 72 h) was 26 µM. For the same molecule, the caspase-3 activity (caspase-3) was “caused the activation of all caspases analyzed”, the IC50 (HSC-3) was 7.7 µM and the “RQ ABL1 gene expression” value (HepG2 cells [2]) was 1.908. The “RQ AKT1 gene expression” value (HepG2 cells [2]) was 1.685, the “RQ AKT2 gene expression” value (HepG2 cells [2]) was 2.7 and 2.697 and the “RQ APC gene expression” value (HepG2 cells [2]) was 1.106. For the same molecule, the “RQ BAX gene expression” value (HepG2 cells [2]) was 0.887, the “RQ BCAR1 gene expression” value (HepG2 cells [2]) was 2.9 and 2.846 and the “RQ BCL2L1 gene expression” value (HepG2 cells [2]) was 0.898. The “RQ BCL2L11 gene expression” value (HepG2 cells [2]) was 9.8 and 9.786, the “RQ BCL2 gene expression” value (HepG2 cells [2]) was 2.4 and 2.377 and the “RQ BID gene expression” value (HepG2 cells [2]) was 1.477. For the same molecule, the “RQ BRAF gene expression” value (HepG2 cells [2]) was 2.3 and 2.296, the “RQ CASP8 gene expression” value (HepG2 cells [2]) was 1.493 and the “RQ CCND1 gene expression” value (HepG2 cells [2]) was 4.8 and 4.752. The “RQ CCND3 gene expression” value (HepG2 cells [2]) was 2.4 and 2.397, the “RQ CCNE1 gene expression” value (HepG2 cells [2]) was 0.674 and the “RQ CDC42 gene expression” value (HepG2 cells [2]) was 4.2 and 4.147. The “RQ CDH1 gene expression” value (HepG2 cells [2]) was 1.051, the “RQ CDK2 gene expression” value (HepG2 cells [2]) was 1.251 and the “RQ CDK4 gene expression” value (HepG2 cells [2]) was 2.7 and 2.737. The “RQ CDKN1A gene expression” value (HepG2 cells [2]) was 0.628, the “RQ CDKN1B gene expression” value (HepG2 cells [2]) was 0.5 and 0.543 and the “RQ CDKN2A gene expression” value (HepG2 cells [2]) was 3.8 and 3.836. For the same molecule, the “RQ CRK gene expression” value (HepG2 cells [2]) was 6.2 and 6.172, the “RQ CTNNB1 gene expression” value (HepG2 cells [2]) was 1.930 and the “RQ CYCS gene expression” value (HepG2 cells [2]) was 1.927. The “RQ DVL1 gene expression” value (HepG2 cells [2]) was 2.7 and 2.712, the “RQ E2F1 gene expression” value (HepG2 cells [2]) was 7.1 and 7.081 and the “RQ EGFR gene expression” value (HepG2 cells [2]) was 2.0 and 1.985. The “RQ ELK1 gene expression” value (HepG2 cells [2]) was 5.2 and 5.179, the “RQ ERBB2 gene expression” value (HepG2 cells [2]) was 2.2 and 2.186 and the “RQ FADD gene expression” value (HepG2 cells [2]) was 1.854. For the same molecule, the “RQ FAS gene expression” value (HepG2 cells [2]) was 2.9 and 2.845, the “RQ FGF2 gene expression” value (HepG2 cells [2]) was 5.5 and 5.503 and the “RQ FOS gene expression” value (HepG2 cells [2]) was 1.472. For the same molecule, the “RQ FYN gene expression” value (HepG2 cells [2]) was 2.2 and 2.240, the “RQ FZD1 gene expression” value (HepG2 cells [2]) was 4.8 and 4.807 and the “RQ GRB2 gene expression” value (HepG2 cells [2]) was 0.855. For the same molecule, the “RQ GSK3B gene expression” value (HepG2 cells [2]) was 0.999, the “RQ HRAS gene expression” value (HepG2 cells [2]) was 2.1 and 2.071 and the “RQ IGF1R gene expression” value (HepG2 cells [2]) was 1.052. The “RQ ITGA2B gene expression” value (HepG2 cells [2]) was 5.4 and 5.437, the “RQ ITGAV gene expression” value (HepG2 cells [2]) was 1.126 and the “RQ ITGB1 gene expression” value (HepG2 cells [2]) was 1.547. The “RQ ITGB3 gene expression” value (HepG2 cells [2]) was 1.478, the “RQ JUN gene expression” value (HepG2 cells [2]) was 4.5 and 4.475 and the “RQ KRAS gene expression” value (HepG2 cells [2]) was 4.8 and 4.786. For the same molecule, the “RQ MAP2K1 gene expression” value (HepG2 cells [2]) was 2.6 and 2.591, the “RQ MAP3K5 gene expression” value (HepG2 cells [2]) was 1.752 and the “RQ MAPK1 gene expression” value (HepG2 cells [2]) was 2.1 and 2.124. For the same molecule, the “RQ MAPK3 gene expression” value (HepG2 cells [2]) was 1.762, the “RQ MAPK8 gene expression” value (HepG2 cells [2]) was 1.293 and the “RQ MAPK14 gene expression” value (HepG2 cells [2]) was 3.0 and 3.025. The “RQ MDM2 gene expression” value (HepG2 cells [2]) was 3.2 and 3.153, the “RQ MYC gene expression” value (HepG2 cells [2]) was 4.3 and 4.304 and the “RQ NFKB1 gene expression” value (HepG2 cells [2]) was 2.2 and 2.156. The “RQ NFKB2 gene expression” value (HepG2 cells [2]) was 3.6 and 3.621, the “RQ NFKBIA gene expression” value (HepG2 cells [2]) was 1.342 and the “RQ NRAS gene expression” value (HepG2 cells [2]) was 1.862. The “RQ PIK3CA gene expression” value (HepG2 cells [2]) was 1.265, the “RQ PIK3R1 gene expression” value (HepG2 cells [2]) was 1.408 and the “RQ PTEN gene expression” value (HepG2 cells [2]) was 0.644. For the same molecule, the “RQ PTK2B gene expression” value (HepG2 cells [2]) was 0.803, the “RQ PTK2 gene expression” value (HepG2 cells [2]) was 2.0 and 2.034 and the “RQ RAC1 gene expression” value (HepG2 cells [2]) was 1.199. The “RQ RAF1 gene expression” value (HepG2 cells [2]) was 4.7 and 4.645, the “RQ RB1 gene expression” value (HepG2 cells [2]) was 0.795 and the “RQ RELA gene expression” value (HepG2 cells [2]) was 2.4 and 2.403. For the same molecule, the “RQ RHOA gene expression” value (HepG2 cells [2]) was 1.541, the “RQ SHC1 gene expression” value (HepG2 cells [2]) was 3.7 and 3.702 and the “RQ SMAD4 gene expression” value (HepG2 cells [2]) was 3.6 and 3.549. For the same molecule, the “RQ SOS1 gene expression” value (HepG2 cells [2]) was 5.0 and 4.992, the “RQ SRC gene expression” value (HepG2 cells [2]) was 1.833 and the “RQ TCF3 gene expression” value (HepG2 cells [2]) was 3.2 and 3.166. The “RQ TGFB1 gene expression” value (HepG2 cells [2]) was 1.267, the “RQ TGFBR1 gene expression” value (HepG2 cells [2]) was 1.352 and the “RQ TGFBR2 gene expression” value (HepG2 cells [2]) was 1.069. The “RQ TP53 gene expression” value (HepG2 cells [2]) was 0.5 and 0.471, the “RQ VEGFA gene expression” value (HepG2 cells [2]) was 3.8 and 3.759 and the IC50 (K-562) was 6.1 µM. The IC50 (MCF-7) was 22.4 µM.
